In ChEMBL document CHEMBL1129107, “Substituted morpholine-2S-acetic acid derivatives: Sch 50911 and related compounds as novel GABAB antagonists” (Bioorg Med Chem Lett, 1996):

Legend:
[1] = Antagonistic activity was measured by the inhibition of Gamma-aminobutyric acid type B receptor binding to rat brain synaptosomes; type: subcellular
Cavia porcellus [2] = organism: Cavia porcellus; assay: Antagonistic activity was measured by the reversal inhibition of EFS stimulated neuronal cholinergic contraction of guinea pig tracheal rings at 300 uM; type: functional; conditions: Trachea
Cavia porcellus [3] = organism: Cavia porcellus; assay: Antagonistic activity was measured by the reversal inhibition of EFS stimulated neuronal cholinergic contraction of guinea pig tracheal rings; type: functional; conditions: Trachea

Compound	IC50 [1] [µM]	IC50 (Cavia porcellus [3]) [µM]	inhibition at 300 µM (Cavia porcellus [2]) [%]
CC1COC(CC(=O)O)CN1 (racemic; form 2)	9	–	–
CCC1(CO)COC(CC(=O)O)CN1 (racemic; form 1)	19	–	99
CC1(C)COC(CC(=O)O)CN1 (stereo in doubt; 24)	> 100	–	–
CCC1(CO)COC(CC(=O)O)CN1 (racemic; form 2)	100	–	–
CCOC(OCC)P(=O)(O)CCCN	62	65	50
CC1(C)CO[C@@H](CC(=O)O)CN1	1.1	–	–

The next lines start with results.

IC50 [1] [µM]	IC50 (Cavia porcellus [3]) [µM]	Compound	inhibition at 300 µM (Cavia porcellus [2]) [%]
> 100	–	CC[C@H]1CO[C@H](CC(=O)O)CN1	–
37	–	CC1COC(CC(=O)O)CN1 (racemic; form 1)	76
> 100	–	O=C(O)CC1CNCCO1 (stereo not given)	46
> 100	–	CC[C@@H]1CO[C@H](CC(=O)O)CN1	–
10	–	CC[C@@H]1CO[C@@H](CC(=O)O)CN1	95
37	–	O=C(O)CC1CNC2(CC2)CO1 (racemic)	–
5	–	CC1(CO)COC(CC(=O)O)CN1 (racemic; form 2)	–
2	4.5	CC1(CO)COC(CC(=O)O)CN1 (racemic; form 1)	–
11	–	O=C(O)CC1CNC2(CCCC2)CO1 (racemic)	97
3	4.6	CC1(C)COC(CC(=O)O)CN1 (racemic)	–
